Results as given in patent US8445492B2, “Method for inhibiting growth of cancer cells and cell telomere and diseases of cell proliferation by using heteroannelated anthraquinone derivative compounds” (National Defense Medical Center, priority 2008, dated 2013).

Columns and labels:
Assay type in all cases: cell-based
[1] = tested on: UACC-257; assay: NCI DTP in-vitro dose response, Melanoma
[2] = tested on: MDA-MB-231/ATCC; assay: NCI DTP in-vitro dose response, Breast Cancer
[3] = tested on: T-47D; assay: NCI DTP in-vitro dose response, Breast Cancer
[4] = tested on: SNB-19; assay: NCI DTP in-vitro dose response, CNS Cancer
[5] = tested on: SF-295; assay: NCI DTP in-vitro dose response, CNS Cancer
[6] = tested on: A498; assay: NCI DTP in-vitro dose response, Renal Cancer
[7] = tested on: OVCAR-4; assay: NCI DTP in-vitro dose response, Ovarian Cancer
[8] = tested on: SNB-75; assay: NCI DTP in-vitro dose response, CNS Cancer
[9] = tested on: MDA-MB-435; assay: NCI DTP in-vitro dose response, Breast Cancer
[10] = tested on: HS 578T; assay: NCI DTP in-vitro dose response, Breast Cancer
[11] = tested on: HT29; assay: NCI DTP in-vitro dose response, Colon Cancer
[12] = tested on: MCF7; assay: NCI DTP in-vitro dose response, Breast Cancer
[13] = tested on: SK-MEL-5; assay: NCI DTP in-vitro dose response, Melanoma
[14] = tested on: ACHN; assay: NCI DTP in-vitro dose response, Renal Cancer
[15] = tested on: UO-31; assay: NCI DTP in-vitro dose response, Renal Cancer
[16] = tested on: COLO 205; assay: NCI DTP in-vitro dose response, Colon Cancer

## O=C1c2ccccc2C(=O)c2c1ccc1nsnc21 [No. 22, Anthra[2,1-c][1,2,5]thiadiazole-6,11-dione]
[1]; Homo sapiens, UACC-257
  GI50: 1.48 µM
[1]; Homo sapiens, UACC-257, read-out: LC50
  CC50: 6.21 µM
[1]; Log10 Concentration −4.0
  Percent Growth: −91%
[1]; Log10 Concentration −5.0
  Percent Growth: −83%
[1]; Log10 Concentration −6.0
  Percent Growth: 77%
[1]; Log10 Concentration −7.0
  Percent Growth: 101%
[1]; Log10 Concentration −8.0
  Percent Growth: 96%
[1]; UACC-257
  TGI: 3.03E−6
[2]; Homo sapiens, MDA-MB-231
  GI50: 2.56 µM
[2]; Homo sapiens, MDA-MB-231, read-out: LC50
  CC50: > 100 µM
[2]; Log10 Concentration −4.0
  Percent Growth: 6%
[2]; Log10 Concentration −5.0
  Percent Growth: 4%
[2]; Log10 Concentration −6.0
  Percent Growth: 81%
[2]; Log10 Concentration −7.0
  Percent Growth: 87%
[2]; Log10 Concentration −8.0
  Percent Growth: 104%
[2]; MDA-MB-231/ATCC
  TGI: >1.00E−4
[3]; Homo sapiens, T47D
  GI50: 0.375 µM
[3]; Homo sapiens, T47D, read-out: LC50
  CC50: 7.79 µM
[3]; Log10 Concentration −4.0
  Percent Growth: −60%
[3]; Log10 Concentration −5.0
  Percent Growth: −59%
[3]; Log10 Concentration −6.0
  Percent Growth: 22%
[3]; Log10 Concentration −7.0
  Percent Growth: 88%
[3]; Log10 Concentration −8.0
  Percent Growth: 91%
[3]; T-47D
  TGI: 1.87E−6
[4]; Homo sapiens, SNB-19
  GI50: 1.86 µM
[4]; Homo sapiens, SNB-19, read-out: LC50
  CC50: 6.43 µM
[4]; Log10 Concentration −4.0
  Percent Growth: −98%
[4]; Log10 Concentration −5.0
  Percent Growth: −86%
[4]; Log10 Concentration −6.0
  Percent Growth: 100%
[4]; Log10 Concentration −7.0
  Percent Growth: 101%
[4]; Log10 Concentration −8.0
  Percent Growth: 102%
[4]; SNB-19
  TGI: 3.46E−6
[5]; Homo sapiens, SF-295
  GI50: 3.08 µM
[5]; Homo sapiens, SF-295, read-out: LC50
  CC50: 93.9 µM
[5]; Log10 Concentration −4.0
  Percent Growth: −51%
[5]; Log10 Concentration −5.0
  Percent Growth: −3%
[5]; Log10 Concentration −6.0
  Percent Growth: 100%
[5]; Log10 Concentration −7.0
  Percent Growth: 105%
[5]; Log10 Concentration −8.0
  Percent Growth: 102%
[5]; SF-295
  TGI: 9.40E−6
[6]; A498
  TGI: >1.00E−4
[6]; Homo sapiens, A498
  GI50: > 100 µM
[6]; Homo sapiens, A498, read-out: LC50
  CC50: > 100 µM
[6]; Log10 Concentration −4.0
  Percent Growth: 84%
[6]; Log10 Concentration −5.0
  Percent Growth: 100%
[6]; Log10 Concentration −6.0
  Percent Growth: 96%
[6]; Log10 Concentration −7.0
  Percent Growth: 104%
[6]; Log10 Concentration −8.0
  Percent Growth: 105%
[7]; Homo sapiens, OVCAR-4
  GI50: 0.52 µM
[7]; Homo sapiens, OVCAR-4, read-out: LC50
  CC50: 4.19 µM
[7]; Log10 Concentration −4.0
  Percent Growth: −100%
[7]; Log10 Concentration −5.0
  Percent Growth: −100%
[7]; Log10 Concentration −6.0
  Percent Growth: 32%
[7]; Log10 Concentration −7.0
  Percent Growth: 94%
[7]; Log10 Concentration −8.0
  Percent Growth: 107%
[7]; OVCAR-4
  TGI: 1.76E−6
[8]; Homo sapiens, SNB-75
  GI50: 1.42 µM
[8]; Homo sapiens, SNB-75, read-out: LC50
  CC50: 5.22 µM
[8]; Log10 Concentration −4.0
  Percent Growth: −100%
[8]; Log10 Concentration −5.0
  Percent Growth: −100%
[8]; Log10 Concentration −6.0
  Percent Growth: 77%
[8]; Log10 Concentration −7.0
  Percent Growth: 66%
[8]; Log10 Concentration −8.0
  Percent Growth: 76%
[8]; SNB-75
  TGI: 2.73E−6
[9]; Homo sapiens, MDA-MB-435
  GI50: 1.91 µM
[9]; Homo sapiens, MDA-MB-435, read-out: LC50
  CC50: 87.8 µM
[9]; Log10 Concentration −4.0
  Percent Growth: −51%
[9]; Log10 Concentration −5.0
  Percent Growth: −32%
[9]; Log10 Concentration −6.0
  Percent Growth: 82%
[9]; Log10 Concentration −7.0
  Percent Growth: 102%
[9]; Log10 Concentration −8.0
  Percent Growth: 100%
[9]; MDA-MB-435
  TGI: 5.23E−6
[10]; HS 578T
  TGI: >1.00E−4
[10]; Homo sapiens, Hs-578T
  GI50: 5.03 µM
[10]; Homo sapiens, Hs-578T, read-out: LC50
  CC50: > 100 µM
[10]; Log10 Concentration −4.0
  Percent Growth: 21%
[10]; Log10 Concentration −5.0
  Percent Growth: 29%
[10]; Log10 Concentration −6.0
  Percent Growth: 100%
[10]; Log10 Concentration −7.0
  Percent Growth: 114%
[10]; Log10 Concentration −8.0
  Percent Growth: 109%
[11]; HT29
  TGI: 7.36E−6
[11]; Homo sapiens, HT-29
  GI50: 2.75 µM
[11]; Homo sapiens, HT-29, read-out: LC50
  CC50: 81 µM
[11]; Log10 Concentration −4.0
  Percent Growth: −53%
[11]; Log10 Concentration −5.0
  Percent Growth: −16%
[11]; Log10 Concentration −6.0
  Percent Growth: 101%
[11]; Log10 Concentration −7.0
  Percent Growth: 105%
[11]; Log10 Concentration −8.0
  Percent Growth: 104%
[12]; Homo sapiens, MCF7
  GI50: 1.24 µM
[12]; Homo sapiens, MCF7, read-out: LC50
  CC50: 7.72 µM
[12]; Log10 Concentration −4.0
  Percent Growth: −63%
[12]; Log10 Concentration −5.0
  Percent Growth: −64%
[12]; Log10 Concentration −6.0
  Percent Growth: 62%
[12]; Log10 Concentration −7.0
  Percent Growth: 77%
[12]; Log10 Concentration −8.0
  Percent Growth: 88%
[12]; MCF7
  TGI: 3.10E−6
[13]; Homo sapiens, SK-MEL-5
  GI50: 1.13 µM
[13]; Homo sapiens, SK-MEL-5, read-out: LC50
  CC50: 4.83 µM
[13]; Log10 Concentration −4.0
  Percent Growth: −100%
[13]; Log10 Concentration −5.0
  Percent Growth: −100%
[13]; Log10 Concentration −6.0
  Percent Growth: 58%
[13]; Log10 Concentration −7.0
  Percent Growth: 85%
[13]; Log10 Concentration −8.0
  Percent Growth: 98%
[13]; SK-MEL-5
  TGI: 2.34E−6
[14]; ACHN
  TGI: 3.33E−6
[14]; Homo sapiens, ACHN
  GI50: 1.71 µM
[14]; Log10 Concentration −4.0
  Percent Growth: −39%
[14]; Log10 Concentration −5.0
  Percent Growth: −82%
[14]; Log10 Concentration −6.0
  Percent Growth: 90%
[14]; Log10 Concentration −7.0
  Percent Growth: 114%
[14]; Log10 Concentration −8.0
  Percent Growth: 107%
[15]; Homo sapiens, UO-31
  GI50: 1.95 µM
[15]; Homo sapiens, UO-31, read-out: LC50
  CC50: 7.41 µM
[15]; Log10 Concentration −4.0
  Percent Growth: −66%
[15]; Log10 Concentration −5.0
  Percent Growth: −72%
[15]; Log10 Concentration −6.0
  Percent Growth: 100%
[15]; Log10 Concentration −7.0
  Percent Growth: 118%
[15]; Log10 Concentration −8.0
  Percent Growth: 111%
[15]; UO-31
  TGI: 3.81E−6
[16]; COLO 205
  TGI: 3.98E−6
[16]; Homo sapiens, COLO 205
  GI50: 1.97 µM
[16]; Homo sapiens, COLO 205, read-out: LC50
  CC50: 8.04 µM
[16]; Log10 Concentration −4.0
  Percent Growth: −71%
[16]; Log10 Concentration −5.0
  Percent Growth: −66%
[16]; Log10 Concentration −6.0
  Percent Growth: 98%
[16]; Log10 Concentration −7.0
  Percent Growth: 87%
[16]; Log10 Concentration −8.0
  Percent Growth: 95%
